Literature values in patent US20050107425A1, “Treatment of attention defecit hyperactivity disorder” (Pfizer Inc, priority 2002, published 2005).
Blank lines part the entries; values can stand above or below the compound they belong to.

Legend:
[1] = clinical trials of Alzheimer's disease and attention-deficit disorders
5HT3R = biological target: T1, 5HT3R (Homo sapiens, UniProt P46098)
T1 sequence (P46098 24-478): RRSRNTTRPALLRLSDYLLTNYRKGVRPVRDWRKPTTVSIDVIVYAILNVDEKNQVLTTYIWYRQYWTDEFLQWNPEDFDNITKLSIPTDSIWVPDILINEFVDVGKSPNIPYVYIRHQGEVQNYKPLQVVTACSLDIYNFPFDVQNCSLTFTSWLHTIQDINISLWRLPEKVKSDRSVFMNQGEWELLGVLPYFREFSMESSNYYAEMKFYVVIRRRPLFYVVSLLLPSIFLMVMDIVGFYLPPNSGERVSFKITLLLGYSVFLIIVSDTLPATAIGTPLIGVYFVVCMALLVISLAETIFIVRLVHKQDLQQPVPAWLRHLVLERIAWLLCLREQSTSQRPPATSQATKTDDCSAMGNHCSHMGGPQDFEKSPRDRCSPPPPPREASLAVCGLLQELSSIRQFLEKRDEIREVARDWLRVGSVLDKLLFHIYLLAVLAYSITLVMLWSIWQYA

α7 nAChR = α7 nAChR (Homo sapiens, UniProt P36544)
Chain of α7 nAChR (P36544 23-502): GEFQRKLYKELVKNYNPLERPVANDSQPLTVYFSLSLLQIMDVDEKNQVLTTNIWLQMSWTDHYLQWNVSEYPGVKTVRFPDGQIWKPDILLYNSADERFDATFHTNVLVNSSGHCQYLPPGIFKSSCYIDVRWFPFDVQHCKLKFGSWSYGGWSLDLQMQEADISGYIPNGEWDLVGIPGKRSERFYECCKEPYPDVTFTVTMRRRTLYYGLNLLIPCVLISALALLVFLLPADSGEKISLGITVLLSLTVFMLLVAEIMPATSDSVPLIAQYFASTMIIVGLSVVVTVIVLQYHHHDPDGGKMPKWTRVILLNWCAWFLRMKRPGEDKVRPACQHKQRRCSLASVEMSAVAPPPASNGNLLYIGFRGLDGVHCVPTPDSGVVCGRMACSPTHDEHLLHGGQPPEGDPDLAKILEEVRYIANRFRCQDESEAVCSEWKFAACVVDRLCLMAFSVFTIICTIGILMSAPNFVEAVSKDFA

SMILES: Cc1cc([C@@H]2CCCN2C)on1 [ABT-418]
cognition and attention in clinical trials [1]: improves cognition and attention

activity at the 5HT3R (5HT3R): little activity
SMILES: COc1ccc(/C=C2\CCCN=C2c2cccnc2)c(OC)c1 [GTS-21]

activity at the α7 nAChR (α7 nAChR): little activity
SMILES: Cc1nccn1CC1CCc2c(c3ccccc3n2C)C1=O (stereo not drawn) [Ondansetron]
